pEC50, pIC50: −log10 of the molar value. Several values for one entry are separate records, joined by “and”; a condition that tells them apart may be missing. Identical values can stand only once.
Legend:
[1] = test system: immature New Zealand white rabbits; experiment: anti-Clauberg assay for oral antiprogestational activity; type: in vivo, rabbit; details: for ED50, anti-Clauberg assay: 5 days; for ED50, anti-Clauberg assay / effectiveness in inhibiting the endometrial response: with progesterone SC
Experimental: In this assay immature New Zealand white rabbits were primed with estrogen by treatment with estradiol for six days. They were then given progesterone subcutaneously (SC) and the test compound (orally) for 5 days. On the day following the treatment, the uteri were excised and examined histologically. The endometrial response was graded by the method of McPhail and the % inhibition was determined at each dose. Statistical analysis provides for an ED50 value.

Human T-47D breast cells [2] = experiment: T-47D cell proliferation, antagonist format (inhibition of 0.15 nM R5020-mediated proliferation); type: cell-based; details: T47D; for pEC50: inhibition of 0.15 nM R5020-mediated proliferation, N.D. not detected; for Emax: maximum % inhibition, 0.15 nM R5020, read-out: Cell Proliferation Antagonist maximum % Inhib.
Experimental: (§1) Human T-47D breast cells grown in nutrient media were incubated with the standard progestin R5020 alone or with R5020 plus test compound and then assessed by standard procedures for proliferation using incorporation of [^3 H]-thymidine as the measurement. […] The maximum % inhibition (a measure of the efficacy of the compounds) is also given. In the agonist format of this assay the compounds were tested at concentrations ranging from 0.01 to 10 nM and the maximum % stimulation at any dose is listed in Table 2. […] However, the presence of a very polar hydroxyl group in the 17α-position greatly diminishes antiprogestational activity and this holds even when the OH is separated from the 17-carbon atom by a methylene group.

progestin receptor (hPR) = experiment: progestin receptor binding; details: cytosol from human T-47D breast cells; [3H]-R5020; read-out: Receptor Binding Affinity hPR IC50
Description: However, the receptors were of human origin and a different radioligand was used. Thus, for progestin receptor binding the receptor was obtained in cytosol from human T-47D breast cells and [^3 H]-R5020 was used as the radioligand. Data are expressed as IC50 values, i.e., the concentration of compound that inhibits the radioligand binding by 50%.

rabbits [3] = experiment: McGinty test (agonist, test compound alone); type: in vivo, rabbit
Experimental: (§2) Progestational activity and antiprogestational activity were determined in rabbits by means of the McGinty test (test compound alone, procedure of McGinty et al., Endocrinology, 24:829-832 (1939)) or anti-McGinty test (test compound plus progesterone, procedure of Tamara et al., Jpn. J. Fertil. Steril. 24:48-81 (1979)). Results were scored according to McPhail (McPhail, J. Physiol., 83:146 (1934)).

Human T-47D breast cells [4] = experiment: T-47D cell proliferation, agonist format; type: cell-based; details: T47D, 0.01 to 10 nM, maximum at any dose, read-out: Cell Proliferation Agonist maximum % Stim.
Experimental: as §1

immature female rabbits = experiment: anti-estrogenic activity in vivo (uterine weight); design: species or system rabbit
Experimental: Steril. 52: 1055-1060 (1989). […] The weight of uteri from untreated immature rabbits was increased from 246±87 (S.E.) mg with no estradiol to 1402±104 mg with estradiol alone. Concurrent treatment of rabbits with estradiol and 10 mg/day of 17α-acetoxy-11β-(4-(N-piperidino)phenyl)-19-norpregna-4,9-diene-3,20-dione reduced the uterine weights to 998±98 mg. Likewise 17α-acetoxy-11β-(4-N-pyrrolidino)phenyl)-19-norpregna-4,9-diene-3,20-dione at 10 mg/day reduced the uterine weight to 919±115 mg, and 17α-acetoxy-11β-(1-methyl-5-indolyl)-19-norpregna-4,9-diene-3,20-dione reduced uterine weight to 956±115 mg at the same dose.

[5] = test system: Ishikawa human endometrial adenocarcinoma cell line; experiment: anti-estrogenic activity in Ishikawa cells (block of estrogen-stimulated alkaline phosphates activity); type: cell-based; details: for anti-estrogenic activity in the Ishikawa cell assay: in words, concentration not given
immature male rats = experiment: antiglucocorticoid activity in vivo (thymus weight); design: species or system rat
Experimental: The ability of the compounds to block the effects of dexamethasone (6 μg per day for 7 days) on thymus weight of immature male rats was assessed.

rabbits [6] = experiment: anti-McGinty test (antagonist, test compound plus progesterone); type: in vivo, rabbit
Experimental: as §2

androgen receptor = target: T1, androgen receptor (Rattus norvegicus, UniProt P15207); experiment: androgen receptor binding
T1 construct: using the cytosolic receptor from rat central prostate; from tissue
T1 sequence (P15207 1-902): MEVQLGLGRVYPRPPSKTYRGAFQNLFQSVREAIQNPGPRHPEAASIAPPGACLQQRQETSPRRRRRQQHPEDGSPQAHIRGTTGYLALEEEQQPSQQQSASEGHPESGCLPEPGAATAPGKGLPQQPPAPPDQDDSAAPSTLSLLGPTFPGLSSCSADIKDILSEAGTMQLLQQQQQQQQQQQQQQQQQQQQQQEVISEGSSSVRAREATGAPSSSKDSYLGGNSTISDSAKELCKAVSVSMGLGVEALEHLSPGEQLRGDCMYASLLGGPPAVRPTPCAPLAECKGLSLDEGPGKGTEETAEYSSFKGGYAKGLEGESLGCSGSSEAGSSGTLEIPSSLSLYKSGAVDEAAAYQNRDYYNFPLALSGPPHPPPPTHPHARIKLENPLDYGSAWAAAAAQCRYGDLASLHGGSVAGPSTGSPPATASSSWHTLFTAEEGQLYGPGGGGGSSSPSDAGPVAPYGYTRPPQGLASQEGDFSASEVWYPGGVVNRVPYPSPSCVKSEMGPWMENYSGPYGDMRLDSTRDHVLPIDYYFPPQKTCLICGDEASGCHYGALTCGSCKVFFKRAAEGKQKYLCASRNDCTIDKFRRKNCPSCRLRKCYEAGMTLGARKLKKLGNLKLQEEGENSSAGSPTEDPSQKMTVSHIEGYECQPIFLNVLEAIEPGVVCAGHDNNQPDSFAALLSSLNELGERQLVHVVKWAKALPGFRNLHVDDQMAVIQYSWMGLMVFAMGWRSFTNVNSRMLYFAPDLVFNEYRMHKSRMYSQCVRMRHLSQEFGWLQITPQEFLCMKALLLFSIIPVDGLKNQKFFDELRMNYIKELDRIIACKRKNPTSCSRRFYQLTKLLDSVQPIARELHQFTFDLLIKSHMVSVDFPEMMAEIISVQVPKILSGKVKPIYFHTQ

rabbits [7] = details: in words; Cook et al., Human Reproduction 1994; cited from earlier work
[8] = test compound 10 mg/day oral + 5 μg estradiol per day

Row | Structure (SMILES) | pEC50 (Human T-47D breast cells [2]) | Emax (Human T-47D breast cells [2]) | pIC50 (progestin receptor (hPR)) | McPhail Index, McGinty Assay (Agonist) (rabbits [3]; dose 0.3 micrograms) | McPhail Index, McGinty Assay (Agonist) (rabbits [3]; dose 3 micrograms) | McPhail Index, McGinty Assay (Agonist) (rabbits [3]; dose 30 micrograms) | Emax (Human T-47D breast cells [4]) | uterine weight (immature female rabbits; [8]) | other results
1 | CC#C[C@]1(O)CC[C@H]2[C@@H]3CCC4=CC(=O)CCC4=C3[C@@H](c3ccc(N(C)C)cc3)C[C@@]21C [mifepristone, reference compound] |  |  |  |  |  |  |  |  | ED50, anti-Clauberg assay [1]: 4.14 mg/day; effectiveness in inhibiting the endometrial response [1]: 67%
2 | CC(=O)O[C@]1(C(C)=O)CC[C@H]2[C@@H]3CCC4=CC(=O)CCC4=C3[C@@H](c3ccc(N4CCCC4)cc3)C[C@@]21C [I 4-(N-pyrrolidino) H O H --O--CO--CH3 H, 17α-Acetoxy-11β-[4-(N-pyrrolidino)phenyl]-19-norpregna-4,9-diene-3-20-dione] | 9.40 | 108% | 9.10 | 0 +/- 0 | 0 +/- 0 | 0 +/- 0 | 1% | 919 ± 115 mg | anti-estrogenic activity in the Ishikawa cell assay [5]: inactive
3 | C[C@]12CC[C@@H]3c4ccc(O)cc4CC[C@H]3[C@@H]1CC[C@@H]2O [estradiol, reference compound] |  |  |  |  |  |  |  |  | uterine weight (immature female rabbits; estradiol alone, 5 μg per day): 1402 ± 104 mg
4 | C[C@@H]1C[C@H]2[C@@H]3CCC4=CC(=O)C=C[C@]4(C)[C@@]3(F)[C@@H](O)C[C@]2(C)[C@@]1(O)C(=O)CO [dexamethasone, reference compound] |  |  |  |  |  |  |  |  | thymus weight (immature male rats; 6 μg dexamethasone alone per day, 7 days): 65 ± 8 mg
5 | CN(C)c1ccc([C@H]2C[C@@]3(C)[C@@H](CC[C@@]34OC(=O)CCC4=O)[C@@H]3CCC4=CC(=O)CCC4=C32)cc1 [II 4-Me2 N H O H -- H H H, 11β-[4-(N,N-dimethylamino)phenyl]-3,20-dioxo-17α-hydroxy-19,21-dinorchola-4,9-dien-24-oic acid δ-lactone] |  |  | 7.92 | 0 +/- 0 | 0 +/- 0 | 0 |  |  | antiprogestational activity, anti-McGinty test (rabbits [6]; in words): potent antiprogestational activity; progestational activity, McGinty test (rabbits [3]; in words): no evidence of progestational activity; pIC50 (androgen receptor; cytosolic receptor from rat central prostate, [3H]-5α-dihydrotestosterone): 7.05; androgen receptor affinity (androgen receptor; in words): very low affinity
6 | CC(=O)O[C@]1(C(C)=O)CC[C@H]2[C@@H]3CCC4=CC(=O)CCC4=C3[C@@H](c3ccc(N(C)C)cc3)C[C@@]21C [17α-acetoxy-11β-(4-(N,N-dimethylamino)phenyl)-19-norpregna-4,9-diene-3,20-dione] |  |  |  |  |  |  |  |  | antiprogestational activity (rabbits [7]): potent antiprogestational activity
7 | CC(=O)O[C@]1(C(C)=O)CC[C@H]2[C@@H]3CCC4=CC(=O)CCC4=C3[C@@H](c3ccc(N4CCCCC4)cc3)C[C@@]21C [I 4-(N-piperidino) H O H --O--CO--CH3 H, 17α-Acetoxy-11β-[4-(N-piperidino)phenyl]-19-norpregna-4,9-diene-3,20-dione] | 9.70 | 117% | 8.92 | 0.1 +/- 0.1 | 0 +/- 0 | 0.2 +/- 0.1 | 0% | 998 ± 98 mg | ED50, anti-Clauberg assay [1]: 0.9 mg/day; potency relative to mifepristone ([1]; more potent than mifepristone): about 5 fold; effectiveness in inhibiting the endometrial response [1]: 100%; anti-estrogenic activity in the Ishikawa assay ([5]; concentrations up to 10^-6 M): inactive
8 | CC(=O)O[C@]1(C(C)=O)CC[C@H]2[C@@H]3CCC4=CC(=O)CCC4=C3[C@@H](c3ccc4c(ccn4C)c3)C[C@@]21C [I 1-methylindol-5-yl O H --O--CO--CH3 H, 17α-Acetoxy-11β-(1-methylindol-5-yl)-19-norpregna-4,9-diene-3,20-dione] | 9.15 | 110% | 8.62 | 0 +/- 0 | 0 +/- 0 | 0 +/- 0 | 17% | 956 ± 115 mg | thymus weight (immature male rats; 6 μg dexamethasone + 1,000 μg test compound per day, 7 days): 105 ± 8 mg; antiglucocorticoid activity (immature male rats; 1000 μg per day, in words): little or no antiglucocorticoid activity in vivo; glucocorticoid activity (immature male rats; compound given alone, in words): Neither did it show significantglucocorticoid activity; thymus weight (immature male rats; test compound given alone): 270 ± 13 mg; anti-estrogenic activity in the Ishikawa cell assay [5]: inactive
9 | CC(=O)OC[C@]1(C(C)=O)CC[C@H]2[C@@H]3CCC4=CC(=O)CCC4=C3[C@@H](c3ccc(N(C)C)cc3)C[C@@]21C [I 4-Me2 N H O H CH2 --O--CO--CH3 H] | 8.05 | 92% | 7.97 | 0 +/- 0 | 0.6 +/- 0.2 | 1.0 +/- 0.1 | 20% |  | McPhail Index, McGinty Assay (Antagonist) (rabbits [6]; rabbit, in vivo): 3.4 +/- 0.1 and 2.6 +/- 0.2 and 2.0 +/- 0.2

— patent publication US6020328A, “20-keto-11β-arylsteroids and their derivatives having agonist or antagonist hormonal properties” (Research Triangle Institute, priority 1998, dated 2000)
